Reference: the supplement of paper PMC10733146

What was measured:
Assay in all cases: viability relative to DMSO control (fraction); higher = less drug effect (more viable cells)
Settings in all cases: 48 h
SGC 0946 = compound: CC(C)N(CCCNC(=O)Nc1ccc(C(C)(C)C)cc1)C[C@H]1O[C@@H](n2cc(Br)c3c(N)ncnc32)[C@H](O)[C@@H]1O [SGC 0946]
Method in brief: (§1)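 Cells were incubated for 48 h at 37 °C and 5% CO2 in RPMI-1640 with penicillin/streptomycin, L-glutamine and human serum, at 4 × 10^4 cells per well in 384-well plates with compounds pre-plated at five concentrations, one well each. These were primary mononuclear tumour cells, fresh or cryopreserved, Ficoll-isolated from blood or bone marrow or obtained from processed lymph node. Viability values are CellTiter-Glo luminescence relative to the median of 16 inner DMSO wells.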

Venetoclax = compound: CC1(C)CCC(CN2CCN(c3ccc(C(=O)NS(=O)(=O)c4ccc(NCC5CCOCC5)c([N+](=O)[O-])c4)c(Oc4cnc5[nH]ccc5c4)c3)CC2)=C(c2ccc(Cl)cc2)C1 [Venetoclax]
Method in brief: as §1

EPZ-6438 = compound: CCN(c1cc(-c2ccc(CN3CCOCC3)cc2)cc(C(=O)NCc2c(C)cc(C)[nH]c2=O)c1C)C1CCOCC1 [EPZ-6438]
Method in brief: as §1

CPI-169 = compound: CCS(=O)(=O)N1CCC([C@@H](C)n2c(C)c(C(=O)NCc3c(OC)cc(C)[nH]c3=O)c3ccccc32)CC1 [CPI-169]
Method in brief: as §1

Vindesine = compound: CC[C@]1(O)C[C@@H]2CN(CCc3c([nH]c4ccccc34)[C@@](C(=O)OC)(c3cc4c(cc3OC)N(C)[C@H]3[C@@](O)(C(N)=O)[C@H](O)[C@]5(CC)C=CCN6CC[C@]43[C@@H]65)C2)C1 [Vindesine]
Method in brief: as §1

[1] = compound: CCc1ccc(/C=C2/SC(=S)NC2=O)cc1
Method in brief: as §1

Midostaurin hydrate = compound: CO[C@@H]1[C@H](N(C)C(=O)c2ccccc2)C[C@H]2O[C@]1(C)n1c3ccccc3c3c4c(c5c6ccccc6n2c5c31)C(=O)NC4 [Midostaurin hydrate]
Method in brief: as §1

Everolimus = compound: CO[C@H]1C[C@@H]2CC[C@@H](C)[C@@](O)(O2)C(=O)C(=O)N2CCCC[C@H]2C(=O)O[C@H]([C@H](C)C[C@@H]2CC[C@@H](OCCO)[C@H](OC)C2)CC(=O)[C@H](C)/C=C(\C)[C@@H](O)[C@@H](OC)C(=O)[C@H](C)C[C@H](C)/C=C/C=C/C=C/1C [Everolimus]
Method in brief: as §1

Idasanutlin (RS7388) = compound: COc1cc(C(=O)O)ccc1NC(=O)[C@@H]1N[C@@H](CC(C)(C)C)[C@](C#N)(c2ccc(Cl)cc2F)[C@H]1c1cccc(Cl)c1F [Idasanutlin (RS7388)]
Method in brief: as §1

Tofacitinib = compound: C[C@@H]1CCN(C(=O)CC#N)C[C@@H]1N(C)c1ncnc2[nH]ccc12 [Tofacitinib]
Method in brief: as §1

[2] = compound: C[C@H](NC(=O)CCC(F)(F)F)C(=O)N[C@@H]1C(=O)N(CCO)c2ncccc2-c2ccccc21
Method in brief: as §1

[3] = compound: C[C@H]1C[C@@H](n2c(Nc3ccc(OC(F)(F)F)cc3)nc3cc(CCC(=O)O)ccc32)CC(C)(C)C1
Method in brief: as §1

Entospletinib = compound: c1cn2cc(-c3ccc4cn[nH]c4c3)nc(Nc3ccc(N4CCOCC4)cc3)c2n1 [Entospletinib]
Method in brief: as §1

In the case of primary CLL patient cells (S031), the viability (SGC 0946; 0.024 µM) is reported as 0.922, the viability (SGC 0946; 0.12 µM) is reported as 0.942 and the viability (SGC 0946; 0.6 µM) is reported as 0.848. For the same test system, the viability (SGC 0946; 3 µM) was 0.793, the viability (SGC 0946; 15 µM) was 0.355 and the viability (Venetoclax; 0.00064 µM) was 0.848. The viability (Venetoclax; 0.0032 µM) was 0.559, the viability (Venetoclax; 0.016 µM) was 0.246 and the viability (Venetoclax; 0.08 µM) was 0.0921. For the same test system, the viability (Venetoclax; 0.4 µM) was 0.0313, the viability (EPZ-6438; 0.024 µM) was 0.927 and the viability (EPZ-6438; 0.12 µM) was 0.931. The viability (EPZ-6438; 0.6 µM) was 0.939, the viability (EPZ-6438; 3 µM) was 0.915 and the viability (EPZ-6438; 15 µM) was 0.8. The viability (CPI-169; 0.024 µM) was 0.891, the viability (CPI-169; 0.12 µM) was 0.931 and the viability (CPI-169; 0.6 µM) was 0.925. It also gave a viability (CPI-169; 3 µM) of 0.895, a viability (CPI-169; 15 µM) of 0.799 and a viability (Vindesine; 0.016 µM) of 0.447. For the same test system, the viability (Vindesine; 0.08 µM) was 0.269, the viability (Vindesine; 0.4 µM) was 0.17 and the viability (Vindesine; 2 µM) was 0.151. For the same test system, the viability (Vindesine; 10 µM) was 0.0709, the viability ([1]; 0.024 µM) was 0.63 and the viability ([1]; 0.12 µM) was 0.764. The viability ([1]; 0.6 µM) was 0.871, the viability ([1]; 3 µM) was 0.828 and the viability ([1]; 15 µM) was 0.821. It also gave a viability (Midostaurin hydrate; 0.024 µM) of 1.07, a viability (Midostaurin hydrate; 0.12 µM) of 1.04 and a viability (Midostaurin hydrate; 0.6 µM) of 0.904. It also gave a viability (Midostaurin hydrate; 3 µM) of 0.452, a viability (Midostaurin hydrate; 15 µM) of 0.171 and a viability (Everolimus; 0.0032 µM) of 0.81. The viability (Everolimus; 0.016 µM) was 0.827, the viability (Everolimus; 0.08 µM) was 0.808 and the viability (Everolimus; 0.4 µM) was 0.879. For the same test system, the viability (Everolimus; 2 µM) was 0.894, the viability (Idasanutlin (RS7388); 0.032 µM) was 0.623 and the viability (Idasanutlin (RS7388); 0.16 µM) was 0.53. It also gave a viability (Idasanutlin (RS7388); 0.8 µM) of 0.244, a viability (Idasanutlin (RS7388); 4 µM) of 0.0778 and a viability (Idasanutlin (RS7388); 20 µM) of 0.0346. For the same test system, the viability (Tofacitinib; 0.024 µM) was 0.904, the viability (Tofacitinib; 0.12 µM) was 0.88 and the viability (Tofacitinib; 0.6 µM) was 0.858. It also gave a viability (Tofacitinib; 3 µM) of 0.938, a viability (Tofacitinib; 15 µM) of 0.791 and a viability ([2]; 0.016 µM) of 0.929. The viability ([2]; 0.08 µM) was 0.966, the viability ([2]; 0.4 µM) was 0.83 and the viability ([2]; 2 µM) was 0.918. For the same test system, the viability ([2]; 10 µM) was 0.852, the viability ([3]; 0.024 µM) was 0.737 and the viability ([3]; 0.12 µM) was 0.895. For the same test system, the viability ([3]; 0.6 µM) was 0.868, the viability ([3]; 3 µM) was 0.774 and the viability ([3]; 15 µM) was 0.805. For the same test system, the viability (Entospletinib; 0.024 µM) was 1.09, the viability (Entospletinib; 0.12 µM) was 0.937 and the viability (Entospletinib; 0.6 µM) was 1.04. It also gave a viability (Entospletinib; 3 µM) of 0.958 and a viability (Entospletinib; 15 µM) of 0.934.

Test System primary DLBCL patient cells (S076) has a viability (SGC 0946; 0.024 µM) of 1.15, a viability (SGC 0946; 0.12 µM) of 1.16 and a viability (SGC 0946; 0.6 µM) of 0.962. The viability (SGC 0946; 3 µM) was 1.06, the viability (SGC 0946; 15 µM) was 0.534 and the viability (Venetoclax; 0.00064 µM) was 1.09. It also gave a viability (Venetoclax; 0.0032 µM) of 1.01, a viability (Venetoclax; 0.016 µM) of 0.622 and a viability (Venetoclax; 0.08 µM) of 0.451. For the same test system, the viability (Venetoclax; 0.4 µM) was 0.374, the viability (EPZ-6438; 0.024 µM) was 1.13 and the viability (EPZ-6438; 0.12 µM) was 1.09. It also gave a viability (EPZ-6438; 0.6 µM) of 1.18, a viability (EPZ-6438; 3 µM) of 1.17 and a viability (EPZ-6438; 15 µM) of 1.03. It also gave a viability (CPI-169; 0.024 µM) of 1.04, a viability (CPI-169; 0.12 µM) of 1.04 and a viability (CPI-169; 0.6 µM) of 1.07. For the same test system, the viability (CPI-169; 3 µM) was 0.993, the viability (CPI-169; 15 µM) was 1.05 and the viability ([1]; 0.024 µM) was 0.949. It also gave a viability ([1]; 0.12 µM) of 0.942, a viability ([1]; 0.6 µM) of 1.07 and a viability ([1]; 3 µM) of 0.995. The viability ([1]; 15 µM) was 0.942, the viability (Everolimus; 0.0032 µM) was 0.937 and the viability (Everolimus; 0.016 µM) was 0.888. The viability (Everolimus; 0.08 µM) was 0.891, the viability (Everolimus; 0.4 µM) was 0.887 and the viability (Everolimus; 2 µM) was 0.855. The viability (Tofacitinib; 0.024 µM) was 0.916, the viability (Tofacitinib; 0.12 µM) was 0.864 and the viability (Tofacitinib; 0.6 µM) was 0.818. The viability (Tofacitinib; 3 µM) was 0.823, the viability (Tofacitinib; 15 µM) was 0.824 and the viability (Entospletinib; 0.024 µM) was 1.05. For the same test system, the viability (Entospletinib; 0.12 µM) was 0.954, the viability (Entospletinib; 0.6 µM) was 0.927 and the viability (Entospletinib; 3 µM) was 0.979. For the same test system, the viability (Entospletinib; 15 µM) was 1.05.
